Data on 28 compounds can be found in ChEMBL document CHEMBL4043259, “From UTP to AR-C118925, the discovery of a potent non nucleotide antagonist of the P2Y2 receptor” (Bioorg Med Chem Lett, 2017).

Test system in one data set: not listed separately
Description: Half life in rat administered via iv. The conditions noted are these: in vivo. In kind it is ADME.
For the compound `Cc1ccc2c(c1)C=Cc1cc(C)ccc1C2c1cn(Cc2ccc(C(=O)Nc3nnn[nH]3)o2)c(=O)[nH]c1=S`, the half-life (commonly how long it takes for the measured level to halve) is 127 min.

Test system in another data set: not listed separately
As to the kind of experiment: Bioavailability in rat. In kind it is ADME, organism-based. The conditions noted are these: in vivo.
As for `Cc1ccc2c(c1)C=Cc1cc(C)ccc1C2c1cn(Cc2ccc(C(=O)Nc3nnn[nH]3)o2)c(=O)[nH]c1=S`, the bioavailability (commonly dose-corrected exposure relative to a reference, in per cent) turned out to be 0%.

Test system in a further data set: not listed separately
Description: Clearance in rat administered via iv. The conditions noted are these: in vivo. In kind it is ADME.
`Cc1ccc2c(c1)C=Cc1cc(C)ccc1C2c1cn(Cc2ccc(C(=O)Nc3nnn[nH]3)o2)c(=O)[nH]c1=S`: the clearance (as a rule, the rate of elimination divided by the concentration) was found to be 75 mL/min/kg.

Test system in a further data set: not listed separately
Description: Volume of distribution at steady state in rat administered via iv. The conditions noted are these: in vivo, read-out: Vdss. It counts as ADME.
On to `Cc1ccc2c(c1)C=Cc1cc(C)ccc1C2c1cn(Cc2ccc(C(=O)Nc3nnn[nH]3)o2)c(=O)[nH]c1=S`, for which the Vd came out at 4.34 L/kg.

The target of another data set is P2Y purinoceptor 2 (Homo sapiens, UniProt P41231). As to the kind of experiment: Antagonist activity at human P2Y2R expressed in human Jurkat cells assessed as inhibition of UTP-activated intracellular calcium mobilization by fluo-3AM dye based fluorescence assay. The conditions noted are these: read-out: pA2 (converted). It counts as functional, cell-based. On the technique in general: Calcium assays in cells follow changes in intracellular calcium, usually with a dye or a luminescent sensor.
Sequence of P2Y purinoceptor 2 (P41231 whole entry): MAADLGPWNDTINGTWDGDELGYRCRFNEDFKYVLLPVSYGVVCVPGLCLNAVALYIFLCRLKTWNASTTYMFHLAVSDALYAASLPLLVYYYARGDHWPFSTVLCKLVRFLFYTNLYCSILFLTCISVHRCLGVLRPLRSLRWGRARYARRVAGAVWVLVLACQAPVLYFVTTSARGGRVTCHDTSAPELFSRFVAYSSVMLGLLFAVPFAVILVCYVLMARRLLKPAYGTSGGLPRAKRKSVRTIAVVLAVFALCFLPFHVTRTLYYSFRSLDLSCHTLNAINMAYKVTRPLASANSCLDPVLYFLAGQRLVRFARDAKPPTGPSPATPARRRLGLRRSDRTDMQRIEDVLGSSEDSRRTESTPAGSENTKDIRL
Take `O=c1[nH]c(=S)c(C(c2ccccc2)c2ccccc2)cn1[C@@H]1O[C@H](COP(=O)(O)OP(=O)(O)C(Cl)(Cl)P(=O)(O)O)[C@@H](O)[C@H]1O`: the Kb was 1000 nM.

As to `COc1ccc(C(c2ccc(OC)cc2)c2cn([C@@H]3O[C@H](COP(=O)(O)OP(=O)(O)C(Cl)(Cl)P(=O)(O)O)[C@@H](O)[C@H]3O)c(=O)[nH]c2=S)cc1`, the Kb is 79.4 nM. Take `O=c1[nH]c(=S)c(C2c3ccccc3Oc3ccccc32)cn1[C@@H]1O[C@H](COP(=O)(O)OP(=O)(O)C(Cl)(Cl)P(=O)(O)O)[C@@H](O)[C@H]1O`: the Kb is 50.1 nM. Same read-out and setting: for `O=c1[nH]c(=S)c(C2c3ccccc3C=Cc3ccccc32)cn1[C@@H]1O[C@H](COP(=O)(O)OP(=O)(O)C(Cl)(Cl)P(=O)(O)O)[C@@H](O)[C@H]1O` the value was 3.16 nM; for `O=C(O)c1ccc(Cn2cc(C3c4ccccc4C=Cc4ccccc43)c(=S)[nH]c2=O)o1`, 1260 nM.

In the case of `O=C(O)Cc1cccc(Cn2cc(C3c4ccccc4C=Cc4ccccc43)c(=S)[nH]c2=O)c1`, the Kb was 2000 nM. On to `Cc1ccc2c(c1)C=Cc1cc(C)ccc1C2c1cn(Cc2ccc(C(=O)Nc3nc(CC(=O)O)cs3)o2)c(=O)[nH]c1=S`, for which the Kb is 31.6 nM. Still for that read-out and setting: for `O=C(O)c1cc(Cn2cc(C3c4ccccc4C=Cc4ccccc43)c(=S)[nH]c2=O)cs1` the value was 2510 nM. The same measure, in the same setting: for `O=c1[nH]c(=S)c(C(c2ccc(Cl)c(Cl)c2)c2ccc(Cl)c(Cl)c2)cn1[C@@H]1O[C@H](COP(=O)(O)OP(=O)(O)C(Cl)(Cl)P(=O)(O)O)[C@@H](O)[C@H]1O` the value was 20 nM; for `O=C(O)c1csc(Cn2cc(C3c4ccccc4C=Cc4ccccc43)c(=O)[nH]c2=O)n1`, 39800 nM; for `O=c1[nH]c(=S)c(C2c3ccccc3C=Cc3ccccc32)cn1[C@@H]1O[C@H](CO)[C@@H](O)[C@H]1O`, 20000 nM. On the same count and under the same terms, for `O=C(O)c1ccc(Cn2cc(C3c4ccc(Cl)cc4C=Cc4cc(Cl)ccc43)c(=S)[nH]c2=O)o1` the value was 200 nM; for `Cc1ccc2c(c1)C=Cc1cc(C)ccc1C2c1cn(Cc2ccc(C(=O)Nc3nc(CC(=O)N[C@@H](CC(=O)O)C(=O)O)cs3)o2)c(=O)[nH]c1=S`, 63.1 nM; for `Cc1ccc2c(c1)C=Cc1cc(C)ccc1C2c1cn(Cc2nc(C(=O)O)cs2)c(=O)[nH]c1=S`, 251 nM.

Turning to `Cc1ccc(C(c2ccc(C)cc2)c2cn([C@@H]3O[C@H](COP(=O)(O)OP(=O)(O)C(Cl)(Cl)P(=O)(O)O)[C@@H](O)[C@H]3O)c(=O)[nH]c2=S)cc1`, the Kb is 15.8 nM. On the same count and under the same terms, for `O=c1[nH]c(=S)c(C2c3ccccc3CCc3ccccc32)cn1[C@@H]1O[C@H](COP(=O)(O)OP(=O)(O)C(Cl)(Cl)P(=O)(O)O)[C@@H](O)[C@H]1O` the value was 10 nM. In the case of `O=C(O)COc1cccc(Cn2cc(C3c4ccccc4C=Cc4ccccc43)c(=S)[nH]c2=O)c1`, the Kb was 2510 nM. Same read-out and setting: for `O=C(O)c1csc(Cn2cc(C3c4ccccc4C=Cc4ccccc43)c(=S)[nH]c2=O)n1` the value was 2000 nM; for `Cc1ccc2c(c1)C=Cc1cc(C)ccc1C2c1cn(Cc2ccc(C(=O)N[C@@H](CC(=O)O)C(=O)O)o2)c(=O)[nH]c1=S`, 25.1 nM; for `O=c1[nH]c(=S)c(C(c2ccc(Cl)cc2)c2ccc(Cl)cc2)cn1[C@@H]1O[C@H](COP(=O)(O)OP(=O)(O)C(Cl)(Cl)P(=O)(O)O)[C@@H](O)[C@H]1O`, 12.6 nM.

`O=c1[nH]c(=S)c(C2c3ccccc3-c3ccccc32)cn1[C@@H]1O[C@H](COP(=O)(O)OP(=O)(O)C(Cl)(Cl)P(=O)(O)O)[C@@H](O)[C@H]1O`: the Kb was 63.1 nM. The same measure, in the same setting: for `O=C(O)c1cccc(Cn2cc(C3c4ccccc4C=Cc4ccccc43)c(=S)[nH]c2=O)c1` the value was 3980 nM; for `O=C(O)c1coc(Cn2cc(C3c4ccccc4C=Cc4ccccc43)c(=S)[nH]c2=O)n1`, 1580 nM; for `O=C(O)c1cnc(Cn2cc(C3c4ccccc4C=Cc4ccccc43)c(=S)[nH]c2=O)s1`, 6310 nM. Turning to `Cc1ccc2c(c1)C=Cc1cc(C)ccc1C2c1cn(Cc2nc(C(=O)N[C@@H](CC(=O)O)C(=O)O)cs2)c(=O)[nH]c1=S`, the Kb is 39.8 nM.

On to `Cc1ccc2c(c1)C=Cc1cc(C)ccc1C2c1cn(Cc2ccc(C(=O)O)o2)c(=O)[nH]c1=S`, for which the Kb was 100 nM. Still for that read-out and setting: for `O=C(O)c1cccc(Cn2cc(C3c4ccccc4C=Cc4ccccc43)c(=S)[nH]c2=O)n1` the value was 3980 nM.
